How the values were obtained:
[1] = molecular target: cyclic nucleotide phosphodiesterase 4 from guinea-pig hearts; assay: Inhibition of cyclic nucleotide phosphodiesterase 4 (96-well microtiter plates, Verghese et al.); assay type: biochemical; details: PDE 4 from guinea-pig hearts; read-out: PDE4 IC50
Experimental: The inhibition of cyclic nucleotide phosphodiesterase 4 from guinea-pig hearts was performed using 96-well microtiter plates as described by Verghese et al., (Molecular Pharmacology, 47, 1164-1171 (1995)).

| Structure (SMILES) | melting point [°C] | IC50 [1] [nM] |
| --- | --- | --- |
| CCCCc1nnc2c3cccnc3c(-c3ccccc3)nn12 [Compound 6] | 162.9 | 2000 |
| CC(C)Cc1nnc2c3cccnc3c(-c3ccccc3)nn12 [Compound 7] | 179.7 | 300 |
| CC(C)(C)c1nnc2c3cccnc3c(-c3ccccc3)nn12 [Compound 8, 3-t-butyl-6-phenyl-1,2,4-triazolo[4,3-b]pyrido[3,2-d]pyridazine] | 188.1 | – |
| c1ccc(-c2nn3c(C4CC4)nnc3c3cccnc23)cc1 [Compound 12, 3-cyclopropyl-6-phenyl-1,2,4-triazolo[4,3-b]pyrido[3,2-d]pyridazine] | 244.3 | 3000 |
| CC(C)Cc1nnc2c3cccnc3c(-c3ccc(F)cc3)nn12 [Compound 31, 6-(4-fluorophenyl)-3-isobutyl-1,2,4-triazolo[4,3-b]pyrido[3,2-d]pyridazine] | 135 | 200 |
| Fc1cccc(-c2nn3c(CC4CCCC4)nnc3c3cccnc23)c1 [Compound 47] | 145 | 700 |
| CC(C)Cc1nnc2c3cccnc3c(-c3cccc(Cl)c3)nn12 [Compound 55] | 113 | 200 |
| Clc1cccc(-c2nn3c(CC4CC4)nnc3c3cccnc23)c1 [Compound 60] | 136 | 100 |
| Clc1cccc(-c2nn3c(CC4CCC4)nnc3c3cccnc23)c1 [Compound 61] | 156 | 2000 |
| CC(C)Cc1nnc2c3cccnc3c(-c3cccc([N+](=O)[O-])c3)nn12 [Compound 109] | 178 | 40 |
| O=[N+]([O-])c1cccc(-c2nn3c(CC4CC4)nnc3c3cccnc23)c1 [Compound 112, 3-cyclopropylmethyl-6-(3-nitrophenyl)-1,2,4-triazolo[4,3-b]pyrido[3,2-d]pyridazine] | 164 | 700 |
| O=[N+]([O-])c1cccc(-c2nn3c(CC4CCC4)nnc3c3cccnc23)c1 [Compound 113, 3-cyclobutylmethyl-6-(3-nitrophenyl)-1,2,4-triazolo[4,3-b]pyrido[3,2-d]pyridazine] | 150 | 200 |
| CC(C)Cc1nnc2c3ccccc3c(-c3ccccc3)nn12 [Compound A, 3-isobutyl-6-phenyl-1,2,4-triazolo[3,4-a]phthalazine, reference compound] | – | 10000 |

— patent US6407108B1, “1,2,4-triazolo(4,3-b)pyrido(3,2-d)pyridazine derivatives and pharmaceutical compositions containing them” (Almirall Prodesfarma, S.A., priority 1997, dated 2002)
